Laboratory results as given in paper PMC11466185, “Mechanisms and efficacy of small molecule latency-promoting agents to inhibit HIV reactivation ex vivo” (JCI Insight, 2024).
Read-outs that look alike come from different tables or passages of the source.

What was measured:
[1] = test system: HIV transcripts (PolyA, TatRev); test: Dose-response curves of LPAs: polyadenylated and multiply spliced HIV transcripts 24 hours after activation; assay type: cell-based; conditions: for IC50: Human immunodeficiency virus 1, PBMC, 24 h, PBMCs from 1 participant per drug; for MS Tat-Rev (dose-response) / PolyA (dose-response): 24 hours, 1 participant per drug
Method: The IC50 was determined based on the reduction in completed (PolyA) as well as multiply spliced (TatRev) HIV transcripts relative to activated DMSO (Table 1).
Figure 2 Dose-response curves of LPAs. Dose-response curves for each drug were generated in PBMCs from 1 ART-suppressed study participant per drug. PBMCs were aliquoted into wells at 6 × 10^6 cells/well, activated, and cultured with antiretrovirals in the presence of DMSO alone (no drug) or varying concentrations of individual drugs in DMSO. After 24 hours, the levels of polyadenylated and multiply spliced HIV transcripts were quantified by RT-ddPCR, normalized to 1 μg of total cellular RNA, and expressed as a percentage of the activated DMSO control (% of activated DMSO).

PBMCs = test: Cell viability by trypan blue staining after 24 hours; assay type: cell-based, human; parameters: key to Viability (dose-response): % of activated DMSO control viability; conditions: for Viability (dose-response): 1 participant per drug, in % (unit assumed)
How it was run: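 PBMCs from ART-suppressed donors at 6 × 10^6 cells/well were activated with CD3/28 beads and cultured with antiretrovirals plus drug in DMSO. Viability counted by trypan blue after 24 hours. Values were normalized to the activated DMSO control.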

Row | SMILES | IC50 ([1]; reduction in PolyA HIV transcripts relative to activated DMSO, read-out: Completed (PolyA) IC50) | IC50 ([1]; reduction in TatRev HIV transcripts relative to activated DMSO, read-out: Multiply spliced (TatRev) IC50) | MS Tat-Rev (dose-response) ([1]; dose 4 nM) | PolyA (dose-response) ([1]; dose 4 nM) | MS Tat-Rev (dose-response) ([1]; dose 10 nM) | PolyA (dose-response) ([1]; dose 10 nM) | MS Tat-Rev (dose-response) ([1]; dose 40 nM) | PolyA (dose-response) ([1]; dose 40 nM) | MS Tat-Rev (dose-response) ([1]; dose 100 nM) | PolyA (dose-response) ([1]; dose 100 nM) | Viability (dose-response) (PBMCs; dose 4 nM) | Viability (dose-response) (PBMCs; dose 10 nM) | Viability (dose-response) (PBMCs; dose 40 nM) | Viability (dose-response) (PBMCs; dose 100 nM) | Viability (Fig 1A) (PBMCs; study participant 150a) | PolyA (dose-response) ([1]; dose 1 nM) | PolyA (dose-response) ([1]; dose 8 nM) | Viability (dose-response) (PBMCs; dose 1 nM) | Viability (dose-response) (PBMCs; dose 8 nM) | Viability (Fig 1A) (PBMCs; study participant 152)
1 | CN1CC[C@H](c2c(O)cc(O)c3c(=O)cc(-c4ccccc4Cl)oc23)[C@H](O)C1 [alvocidib] | 3.41 nM | 4.23 nM | 60.15 % of activated DMSO | 52.96 % of activated DMSO | 21.37 % of activated DMSO | 17.13 % of activated DMSO | 5.52 % of activated DMSO | 5.99 % of activated DMSO | 1.88 % of activated DMSO | 3.2 % of activated DMSO | 81 | 85 | 95.181 | 77 | 98.54 % of activated DMSO |  |  |  |  | 
2 | CCc1cnn2c(NCc3ccc[n+]([O-])c3)cc(N3CCCC[C@H]3CCO)nc12 [dinaciclib] |  |  |  | 6.37 % of activated DMSO |  |  |  |  |  |  | 89.815 |  |  |  | 96.36 % of activated DMSO | 39.51 % of activated DMSO | 1.62 % of activated DMSO | 89.474 | 89.726 | 99.43 % of activated DMSO
